Details: 283.15 K, Liquid, Vibrating tube method

CCCCCC(=O)OCC(COC(=O)CCCCC)(COC(=O)CCCCC)COC(=O)CCCCC [pentaerythritol tetrahexanoate]
Details	mass density [kg/m3]
25591 kPa	1018.3
25610 kPa	1018.3
25634 kPa	1018.4
25653 kPa	1018.5
25672 kPa	1018.4
25696 kPa	1018.4
25716 kPa	1018.4
25738 kPa	1018.5
25757 kPa	1018.5
25774 kPa	1018.5
25793 kPa	1018.4
25815 kPa	1018.4
25832 kPa	1018.4
25851 kPa	1018.4
25872 kPa	1018.5
25890 kPa	1018.4
25912 kPa	1018.6
25930 kPa	1018.7
25948 kPa	1018.5
25966 kPa	1018.5
25986 kPa	1018.5
26002 kPa	1018.5
26022 kPa	1018.6
26039 kPa	1018.6
26056 kPa	1018.6
26075 kPa	1018.7
26091 kPa	1018.6
26108 kPa	1018.7
26127 kPa	1018.6
26143 kPa	1018.8
26160 kPa	1018.6
26180 kPa	1018.7
26196 kPa	1018.6
26213 kPa	1018.6
26233 kPa	1018.7
26249 kPa	1018.7
26266 kPa	1018.8
26287 kPa	1018.8
26303 kPa	1018.7
26320 kPa	1018.8
26337 kPa	1018.8
26357 kPa	1018.7
26374 kPa	1018.7
26394 kPa	1018.6
26410 kPa	1018.8
26428 kPa	1018.7
26448 kPa	1018.9
26465 kPa	1018.8
26483 kPa	1018.7
26500 kPa	1018.8
26521 kPa	1018.9
26538 kPa	1018.8
26559 kPa	1018.9
26576 kPa	1018.9
26593 kPa	1018.8
26609 kPa	1018.8
26629 kPa	1018.9
26645 kPa	1018.9
26661 kPa	1019
26680 kPa	1018.9
26696 kPa	1018.9
26713 kPa	1018.9
26730 kPa	1018.9
26746 kPa	1018.9
26766 kPa	1019
26782 kPa	1019
26798 kPa	1019
26818 kPa	1019
26834 kPa	1019
26850 kPa	1018.9
26870 kPa	1019
26886 kPa	1019
26902 kPa	1019
26957 kPa	1019.1
26974 kPa	1019
26993 kPa	1019.2
27010 kPa	1019.1
27026 kPa	1019
27042 kPa	1019.2
27063 kPa	1019.1
27080 kPa	1019.2
27097 kPa	1019.1
27117 kPa	1019
27134 kPa	1019.1
27155 kPa	1019.2
27172 kPa	1019.2
27188 kPa	1019.2
27204 kPa	1019.3
27222 kPa	1019.2
27238 kPa	1019.2
27253 kPa	1019.2
27272 kPa	1019.2
27288 kPa	1019.3
27306 kPa	1019.2
27322 kPa	1019.4
27338 kPa	1019.3
27354 kPa	1019.3
27373 kPa	1019.2
27388 kPa	1019.2
27404 kPa	1019.3
27423 kPa	1019.3
27439 kPa	1019.3
27458 kPa	1019.4
27474 kPa	1019.3
27489 kPa	1019.4
27505 kPa	1019.3
27524 kPa	1019.4
27540 kPa	1019.3
27560 kPa	1019.3
27576 kPa	1019.3
27592 kPa	1019.4
27611 kPa	1019.4
27627 kPa	1019.3
27644 kPa	1019.4
27660 kPa	1019.5
27679 kPa	1019.5
27696 kPa	1019.4
27712 kPa	1019.5
27732 kPa	1019.4
27748 kPa	1019.5
27764 kPa	1019.6
27784 kPa	1019.5
27800 kPa	1019.4
27817 kPa	1019.5
27837 kPa	1019.5
27853 kPa	1019.4
27869 kPa	1019.5
27889 kPa	1019.6
27906 kPa	1019.6
27922 kPa	1019.7
27942 kPa	1019.6
27959 kPa	1019.6
27976 kPa	1019.5
27996 kPa	1019.7
28012 kPa	1019.5
28029 kPa	1019.6
28046 kPa	1019.7
28066 kPa	1019.7
28083 kPa	1019.7
28100 kPa	1019.7
28120 kPa	1019.6
28136 kPa	1019.6
28153 kPa	1019.7
28170 kPa	1019.8
28190 kPa	1019.8
28207 kPa	1019.9
28225 kPa	1019.7
28245 kPa	1019.7
28262 kPa	1019.7
28280 kPa	1019.8
28297 kPa	1019.7
28314 kPa	1019.7
28334 kPa	1019.8
28351 kPa	1019.7
28371 kPa	1019.8
28388 kPa	1019.7
28405 kPa	1019.9
28422 kPa	1019.7
28443 kPa	1019.8
28460 kPa	1019.8
28478 kPa	1019.8
28500 kPa	1019.8
28517 kPa	1019.8
28535 kPa	1019.9
28552 kPa	1019.9
28570 kPa	1019.9
28591 kPa	1019.9
28608 kPa	1020
28629 kPa	1019.9
28646 kPa	1019.9
28664 kPa	1019.9
28686 kPa	1019.9
28703 kPa	1020
28722 kPa	1019.9
28744 kPa	1019.9
28763 kPa	1019.9
28781 kPa	1019.9
28800 kPa	1020
28815 kPa	1020.1
28830 kPa	1020.1
28848 kPa	1020
28863 kPa	1020
28878 kPa	1020.2
28896 kPa	1020
28911 kPa	1020
28926 kPa	1020
28944 kPa	1020.1
28958 kPa	1020.1
28973 kPa	1020
28990 kPa	1020.2
29004 kPa	1020.2
29018 kPa	1020.1
29035 kPa	1020
29050 kPa	1020.2
29064 kPa	1020.1
29081 kPa	1020.1
29096 kPa	1020.3
29110 kPa	1020.2
29127 kPa	1020.2
29142 kPa	1020.1
29156 kPa	1020.1
29171 kPa	1020.1
29188 kPa	1020.2
29202 kPa	1020.1
29219 kPa	1020.3
29234 kPa	1020.3
29248 kPa	1020.3
29263 kPa	1020.3
29280 kPa	1020.2
29295 kPa	1020.3
29313 kPa	1020.3
29327 kPa	1020.3
29342 kPa	1020.3
29357 kPa	1020.3
29375 kPa	1020.3
29389 kPa	1020.4
29407 kPa	1020.3
29422 kPa	1020.4
29436 kPa	1020.2
29451 kPa	1020.4
29469 kPa	1020.3
29484 kPa	1020.4
29499 kPa	1020.3
29516 kPa	1020.3
29531 kPa	1020.5
29547 kPa	1020.3
29564 kPa	1020.4
29579 kPa	1020.4
29594 kPa	1020.4
29609 kPa	1020.4
29627 kPa	1020.4
29642 kPa	1020.5
29660 kPa	1020.5
29675 kPa	1020.5
29690 kPa	1020.6
29708 kPa	1020.6
29723 kPa	1020.4
29738 kPa	1020.6
29754 kPa	1020.5
29770 kPa	1020.5
29788 kPa	1020.5
29803 kPa	1020.5
29821 kPa	1020.5
29837 kPa	1020.6
29852 kPa	1020.6
29867 kPa	1020.6
29886 kPa	1020.6
29901 kPa	1020.5
29916 kPa	1020.5
29935 kPa	1020.6
29950 kPa	1020.6
29967 kPa	1020.7
29982 kPa	1020.5
29998 kPa	1020.6
30016 kPa	1020.5
30032 kPa	1020.6
30048 kPa	1020.6
30066 kPa	1020.6
30082 kPa	1020.6
30097 kPa	1020.6
30116 kPa	1020.6
30131 kPa	1020.7
30147 kPa	1020.7
30163 kPa	1020.7
30182 kPa	1020.7
30198 kPa	1020.8
30214 kPa	1020.7
30232 kPa	1020.7
30248 kPa	1020.8
30264 kPa	1020.7
30280 kPa	1020.7
30298 kPa	1020.7
30314 kPa	1020.9
30330 kPa	1020.9
30349 kPa	1020.8
30364 kPa	1020.8
30384 kPa	1020.9
30400 kPa	1020.8
30416 kPa	1020.9
30431 kPa	1020.8
30451 kPa	1020.8
30466 kPa	1020.9
30482 kPa	1020.9
30502 kPa	1020.9
30517 kPa	1020.9
30536 kPa	1020.9
30552 kPa	1020.9
30568 kPa	1020.9
30587 kPa	1021

— the NIST ThermoML archive (doi:10.1021/je060271a)
